# Source: patent publication US8598212B2, “Therapeutic agent and preventative agent for alzheimer's disease” (Toray Industries, Inc., priority 2010, dated 2013)
# Counter-ions that a name gives are not always drawn.
# Experiments:
# [1] = test system: mouse partial sciatic nerve ligation model; assay: von Frey test in mouse partial sciatic nerve ligation model (Seltzer model); format: in vivo, ICR mice; details: for inhibition in vivo at 10 mg/kg / von Frey Total Score of 1 Hour after Oral Administration (Mean ± S.E.), Test Compound-Administered Group: dose 10 mg/kg oral; for von Frey Total Score of 1 Hour after Oral Administration (Mean ± S.E.), Test Compound-Administered Group: n = 5-6, 7 days after ligation
# Protocol: As a reference example, the mouse partial sciatic nerve ligation model (Seltzer model), by which neuropathic pain can be evaluated, was used to evaluate the analgesic effect of Compound (I).
# Mouse models of partial sciatic nerve ligation were prepared according to Seltzer's method (Malmberg et al., Pain, 1998, vol. 76, p. 215-222). Male ICR mice of 5 weeks old were anesthetized with Sodium pentobarbital (70 mg/kg, i.p.), and thereafter, the sciatic nerve at the femoral region of the right hind limb of each mouse was exposed, and the sciatic nerve was triply ligated tightly with silk suture of 8-0 (NATSUME SEISAKUSHO) under microscope so that only half thickness of the nerve was trapped in the ligature, which mice were used as a ligation group. The mice whose sciatic nerves were exposed but not ligated were used as a sham operation group.
# Evaluation of neuropathic pain (hereinafter “von Frey test”) was carried out as follows. Mice were conditioned for at least 1 hour in an acryl cage for measurement (NATSUME SEISAKUSHO) placed on a wire net. Thereafter, using a filament (North Coast Medical, Inc. CA, USA) which exerted a pressure of 0.16 g, the mice were subjected to mechanical tactile stimulus by applying the filament to the plantar surface of both hindpaws 3 times, each for 3 seconds, with an interval of 3 seconds.
# Seven days after the sciatic nerve ligation, test compounds were orally administered to the mice. Prior to the oral administration of the test compounds, the von Frey test was carried out to split the animals of the ligation group into vehicle groups and test compound-administered groups so that the sums of the total scores of the groups were equalized. The mice of the sham operation groups, the vehicle groups and the test compound-administered groups were subjected to the von Frey test 1 hour, 2 hours and 3 hours after oral administration of a vehicle or a test compound, and the obtained scores were used as an indicator of analgesic effect. As a vehicle of test compound solution or suspension, dimethyl sulfoxide (hereinafter “DMSO”):Tween80:distilled water (1:1:8), 27% hydroxypropyl-β-cyclodextrin (hereinafter “27% HP-β-CD”) or 0.5% MC was used.
# For evaluation of drug efficacy, data were statistically processed by the unpaired multigroup t test (adjusted by Dunnett), taking the vehicle group of each measurement time as a control.
# [2] = test system: rat diabetic neuropathic pain model; details: Chen et al., 2009; cited from earlier work
# [3] = test system: patients with complex regional pain syndrome; details: Sinia et al., Clin J Pain, 2007; cited from earlier work
# [4] = test system: rats with medial septal lesions; details: 0.5 mg/kg; Ogura et al., 1998; cited from earlier work
# [5] = test system: Alzheimer's disease model rats; assay: Morris water maze test in Alzheimer's disease model rats (basal ganglia destroyed with ibotenic acid); format: in vivo, Wistar rats; details: 30 mg/kg oral once per day from Day 0 after destruction treatment, not given just before trials; Day 10 to Day 12; compared to vehicle-administered group
# [6] = test system: rat neuropathic pain model; details: Clayton et al., Anesthesiology, 2007; cited from earlier work
# [7] = Mus musculus, po, 1 h, relative to vehicle and sham operation groups, read-out: Score Improvement
smiles,measurement,setting,value
COc1ccc(-n2nc(C3(O)CCC(O)CC3)cc2-c2ccc(C)cc2)cc1F (centres unmarked) [Compound 54],inhibition in vivo at 10 mg/kg,[1]; [7],83%
"COc1ccc(-c2nc(C3(O)CCC(O)CC3)oc2-c2ccc(OC)cc2)cc1 (stereo not drawn) [Compound 43, 4-(4,5-bis(4-methoxyphenyl)oxazol-2-yl)cyclohexan-cis-1,4-diol]",inhibition in vivo at 10 mg/kg,[1]; [7],100%
CCc1ccc(-c2cc(C3(O)CCC(O)CC3)nn2-c2ccc(OC)cc2)cc1 (centres unmarked) [Compound 48],inhibition in vivo at 10 mg/kg,[1]; [7],83%
same,"von Frey Total Score of 1 Hour after Oral Administration (Mean ± S.E.), Test Compound-Administered Group",[1],1.0 ± 0.5
COc1ccc(-n2nc(C3(O)CCC(O)CC3)cc2-c2ccc(C)c(F)c2)cc1 (centres unmarked) [Compound 55],inhibition in vivo at 3 mg/kg,"[1]; Mus musculus, po, 1 h, dose 3 mg/kg oral, relative to vehicle and sham operation groups, read-out: Score Improvement",93%
CC12CC3CC(C)(C1)CC(N)(C3)C2 [memantine],analgesic effect,[2],exhibits an analgesic effect
same,analgesic effect,[3],exhibits an analgesic effect
COc1cc2c(cc1OC)C(=O)C(CC1CCN(Cc3ccccc3)CC1)C2 (centres unmarked) [donepezil hydrochloric acid salt],effectiveness in the Morris water maze test,[4],effective
"COc1ccc(-n2nc(C3(O)CCC(O)CC3)cc2-c2ccc(C)cc2)cc1 (single isomer, unassigned) [Compound 3, 1-(1-(4-methoxyphenyl)-5-(p-tolyl)-1H-pyrazol-3-yl)cyclohexan-cis-1,4-diol]",Escape latency in Morris water maze,[5],statistically significantly shortened
COc1cc2c(cc1OC)C(=O)C(CC1CCN(Cc3ccccc3)CC1)C2 (centres unmarked) [donepezil],analgesic effect,[6],exhibits an analgesic effect
"COc1ccc(-n2nc(C3(O)CCC(O)(C(F)(F)F)CC3)cc2-c2ccc(C)cc2)cc1 (stereo not drawn) [Compound 10, 1-(1-(4-methoxyphenyl)-5-(p-tolyl)-1H-pyrazol-3-yl)-4-(trifluoromethyl)cyclohexan-cis-1,4-diol]",inhibition in vivo at 1 mg/kg,"[1]; Mus musculus, po, 1 h, dose 1 mg/kg oral, relative to vehicle and sham operation groups, read-out: Score Improvement",78%
"COc1ccc(-n2nc(C3(O)CCC(O)CC3)cc2-c2ccc(C)nc2)cc1 (stereo not drawn) [Compound 15, 1-(1-(4-methoxyphenyl)-5-(6-methylpyridin-3-yl)-1H-pyrazol-3-yl)cyclohexan-cis-1,4-diol]",inhibition in vivo at 10 mg/kg,[1]; [7],84%
same,"von Frey Total Score of 1 Hour after Oral Administration (Mean ± S.E.), Test Compound-Administered Group",[1],1.0 ± 0.4
"COc1ccc(-c2cc(C3(O)CCC(O)CC3)nn2-c2ccc(OC)cc2)cc1 (stereo not drawn) [Compound 8, 1-(1,5-bis(4-methoxyphenyl)-1H-pyrazol-3-yl)cyclohexan-cis-1,4-diol]",inhibition in vivo at 10 mg/kg,[1]; [7],70%
